Reference: patent US11591323B2, “Muscarinic agonists as non-steroidal and non-opioid analgesics and methods of use thereof” (Barry University, priority 2019, dated 2023)
Values joined by “and” are separate entries in the source; they are usually repeats but may differ in a detail not shown here. Identical values can stand only once. Like-named read-outs stand apart in the source and are kept apart here.

Columns and labels:
Set-up in all cases: host or cells: CHO cells, stably transfected
M4 muscarinic receptor [1] = target: T1, M4 muscarinic receptor (Homo sapiens, UniProt P08173); test: [3H]NMS competition binding, M4 CHO membranes
T1 sequence (P08173 1-479): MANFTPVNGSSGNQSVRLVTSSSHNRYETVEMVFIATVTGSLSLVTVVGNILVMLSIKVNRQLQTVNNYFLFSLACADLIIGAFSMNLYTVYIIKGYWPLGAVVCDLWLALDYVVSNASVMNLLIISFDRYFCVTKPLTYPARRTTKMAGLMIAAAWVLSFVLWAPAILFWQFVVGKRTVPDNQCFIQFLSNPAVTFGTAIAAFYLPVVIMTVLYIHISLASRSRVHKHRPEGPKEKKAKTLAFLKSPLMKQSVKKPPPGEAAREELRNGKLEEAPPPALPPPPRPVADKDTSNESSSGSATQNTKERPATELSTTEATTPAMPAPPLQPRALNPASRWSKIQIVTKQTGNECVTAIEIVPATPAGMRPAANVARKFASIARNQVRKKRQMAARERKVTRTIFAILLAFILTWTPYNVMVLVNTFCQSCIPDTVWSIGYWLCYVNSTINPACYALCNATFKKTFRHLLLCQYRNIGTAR

M4 muscarinic receptor [2] = target: T1, M4 muscarinic receptor; test: inhibition of forskolin-stimulated cAMP, M4 CHO cells (M4Gi); type: cell-based; details: for Emax: CHO
M5 muscarinic receptor = target: T2, M5 muscarinic receptor (Homo sapiens, UniProt P08912); test: [3H]NMS competition binding, M5 CHO membranes
T2 sequence (P08912 1-532): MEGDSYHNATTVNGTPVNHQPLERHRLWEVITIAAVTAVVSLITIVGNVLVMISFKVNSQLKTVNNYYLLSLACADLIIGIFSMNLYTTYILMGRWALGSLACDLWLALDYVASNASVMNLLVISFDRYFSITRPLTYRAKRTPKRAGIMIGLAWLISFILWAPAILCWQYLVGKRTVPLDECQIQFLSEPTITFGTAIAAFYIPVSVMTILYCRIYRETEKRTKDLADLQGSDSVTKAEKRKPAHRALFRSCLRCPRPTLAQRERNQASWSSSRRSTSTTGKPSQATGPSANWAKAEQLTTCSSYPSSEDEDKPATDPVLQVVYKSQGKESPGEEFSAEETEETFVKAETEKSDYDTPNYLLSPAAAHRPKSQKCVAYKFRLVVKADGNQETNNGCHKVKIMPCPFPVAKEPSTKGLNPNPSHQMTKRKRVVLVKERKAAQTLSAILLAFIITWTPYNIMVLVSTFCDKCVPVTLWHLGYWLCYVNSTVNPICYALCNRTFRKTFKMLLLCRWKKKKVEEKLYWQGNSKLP

M1 muscarinic receptor [3] = target: T3, M1 muscarinic receptor (Homo sapiens, UniProt P11229); test: accumulation of inositol phosphates IPX, M1 CHO cells (M1Gq); type: cell-based
T3 sequence (P11229 1-460): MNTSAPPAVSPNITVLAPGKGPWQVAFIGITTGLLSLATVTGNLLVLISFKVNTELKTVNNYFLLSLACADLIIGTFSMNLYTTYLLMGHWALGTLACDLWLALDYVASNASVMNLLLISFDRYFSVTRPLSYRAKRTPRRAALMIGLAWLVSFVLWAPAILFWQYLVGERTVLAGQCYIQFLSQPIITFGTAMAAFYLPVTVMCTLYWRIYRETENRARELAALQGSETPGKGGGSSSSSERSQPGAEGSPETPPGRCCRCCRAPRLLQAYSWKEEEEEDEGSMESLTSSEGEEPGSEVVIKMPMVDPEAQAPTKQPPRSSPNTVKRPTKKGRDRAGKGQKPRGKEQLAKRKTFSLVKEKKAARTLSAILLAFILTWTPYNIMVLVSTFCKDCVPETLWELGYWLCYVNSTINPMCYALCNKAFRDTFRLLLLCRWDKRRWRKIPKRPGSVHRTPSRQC

M1 muscarinic receptor [4] = target: T3, M1 muscarinic receptor; test: [3H]NMS competition binding, M1 CHO membranes
M3 muscarinic receptor = M3 muscarinic receptor (Homo sapiens, UniProt P20309); test: accumulation of IPX, M3 CHO cells (M3Gq); type: cell-based
[5] = M4 (↓cAMP), preferential response, Table 7
[6] = M4 (↓cAMP), preferential response, Table 7, operational efficacy
[7] = M4 (↓cAMP), preferential response, relative to carbachol, Tables 2, 3, 7
[8] = M4 (↓cAMP), preferential response, to carbachol, Tables 2, 3, 7
[9] = M4Gi (↓cAMP), Table 8, to carbachol
[10] = competition with 1 nM [3H]NMS, read-out: Inhibition constants (Ki) as negative logarithms, M4 (converted)
[11] = M4 (↓cAMP), preferential response, Table 7, operational model, read-out: pKA (converted)
[12] = M4 (↓cAMP), preferential response, Table 7, read-out: pEC50 (converted)
[13] = competition with 1 nM [3H]NMS, read-out: Inhibition constants (Ki) as negative logarithms, M5 (converted)
[14] = M1 (↑IPX), preferential response, Table 7
[15] = M1 (↑IPX), preferential response, Table 7, operational efficacy
[16] = M1 (↑IPX), preferential response, Table 7, operational model, read-out: pKA (converted)
[17] = M1 (↑IPX), preferential response, Table 7, read-out: pEC50 (converted)
[18] = competition with 1 nM [3H]NMS, read-out: Inhibition constants (Ki) as negative logarithms, M1 (converted)
[19] = M3 (↑IPX), preferential response, Table 7
[20] = M3 (↑IPX), preferential response, Table 7, operational efficacy
[21] = M3 (↑IPX), preferential response, Table 7, operational model, read-out: pKA (converted)
[22] = M3 (↑IPX), preferential response, Table 7, read-out: pEC50 (converted)

Chain of M3 muscarinic receptor (P20309 whole entry): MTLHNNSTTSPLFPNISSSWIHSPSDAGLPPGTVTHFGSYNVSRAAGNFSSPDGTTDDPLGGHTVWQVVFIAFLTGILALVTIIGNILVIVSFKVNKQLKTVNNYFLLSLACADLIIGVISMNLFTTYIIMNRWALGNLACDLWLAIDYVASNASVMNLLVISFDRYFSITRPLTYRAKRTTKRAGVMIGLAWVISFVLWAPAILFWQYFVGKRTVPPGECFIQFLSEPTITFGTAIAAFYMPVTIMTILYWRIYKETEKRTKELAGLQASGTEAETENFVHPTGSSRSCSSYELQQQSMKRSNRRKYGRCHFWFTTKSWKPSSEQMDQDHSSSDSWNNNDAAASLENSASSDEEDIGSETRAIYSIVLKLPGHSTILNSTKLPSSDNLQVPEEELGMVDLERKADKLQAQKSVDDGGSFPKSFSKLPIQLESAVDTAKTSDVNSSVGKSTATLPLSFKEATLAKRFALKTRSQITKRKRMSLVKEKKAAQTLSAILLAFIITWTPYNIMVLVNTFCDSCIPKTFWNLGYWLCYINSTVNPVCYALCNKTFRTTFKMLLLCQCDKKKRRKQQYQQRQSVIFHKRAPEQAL

O=C1CCCN1CC#CCN1CCCC1 [oxotremorine, reference compound]
Ki (M4 muscarinic receptor [1]; Inhibition constants (KI) as negative logarithms, M4, high site, reference agonists, high affinity site): 0.0126 µM
Ki (M4 muscarinic receptor [1]; Inhibition constants (KI) as negative logarithms, M4, low site, reference agonists, low affinity site): 0.617 µM
Kd (M4 muscarinic receptor [2]): 0.0316 µM
Emax (M4 muscarinic receptor [2]): 48 ± 2%
pEC50 (M4 muscarinic receptor [2]; [5]): 7.85 ± 0.04
τ (M4 muscarinic receptor [2]; [6]): 1.17 ± 0.08
RAi (M4 muscarinic receptor [2]; [7]): 3.81 ± 0.16
Δlog(τ/KA) (M4 muscarinic receptor [2]; [8]): −0.62 ± 0.08
E′MAX (M4 muscarinic receptor [2]; M4Gi (↓cAMP), Table 8): 48 ± 2 % inhibition
pEC50 (M4 muscarinic receptor [2]; M4Gi (↓cAMP), Table 8): 7.85 ± 0.04
pKA (M4 muscarinic receptor [2]; M4Gi (↓cAMP), Table 8): 7.5 ± 0.1
τ (M4 muscarinic receptor [2]; M4Gi (↓cAMP), Table 8): 1.2 ± 0.1
RAi (M4 muscarinic receptor [2]; M4Gi (↓cAMP), Table 8, relative to carbachol): 3.81 ± 0.16
Δlog(τ/KA) (M4 muscarinic receptor [2]; [9]): −0.62 ± 0.08
Ki (M5 muscarinic receptor; Inhibition constants (KI) as negative logarithms, M5, high site, reference agonists, high affinity site): 0.0126 µM
Ki (M5 muscarinic receptor; Inhibition constants (KI) as negative logarithms, M5, low site, reference agonists, low affinity site): 0.537 µM
Kd (M1 muscarinic receptor [3]): 0.2 µM
RAi (M1 muscarinic receptor [3]): 3.71 ± 0.29 and 3.84 ± 0.28
pKA (M1 muscarinic receptor [3]): 6.7 ± 0.1
Δlog(τ/KA) (M1 muscarinic receptor [3]): −0.57 ± 0.06 and −0.58 ± 0.05
τ (M1 muscarinic receptor [3]): 2.55 ± 0.25 and 2.6 ± 0.3
EC50 (M1 muscarinic receptor [3]; pEC50): 0.0525 µM and 0.055 µM
Ki (M1 muscarinic receptor [4]; Inhibition constants (KI) as negative logarithms, M1, high site): 0.00794 µM
Ki (M1 muscarinic receptor [4]; Inhibition constants (KI) as negative logarithms, M1, low site): 0.372 µM
EC50 (M3 muscarinic receptor): 0.0955 µM
E′MAX (M3 muscarinic receptor): 22 ± 2 fold over basal
Kd (M3 muscarinic receptor): 0.398 µM
RAi (M3 muscarinic receptor): 4.14 ± 0.38 and 4.14 ± 0.41
pEC50 (M3 muscarinic receptor): 7.02 ± 0.04
pKA (M3 muscarinic receptor): 6.4 ± 0.1
Δlog(τ/KA) (M3 muscarinic receptor): −0.62 ± 0.06
τ (M3 muscarinic receptor): 2.97 ± 0.30 and 3.0 ± 0.3

C[N+]1(Cc2ccc(Br)s2)CC=CCC1.[I-] (centres unmarked) [Compound 7C, 1-[(5-bromothiophen-2-yl)methyl]-1-methyl-1,2,3,6-tetrahydropyridin-1-ium iodide]
Ki (M4 muscarinic receptor [1]; [10]): 1.45 µM
Emax (M4 muscarinic receptor [2]): 11 ± 1%
τ (M4 muscarinic receptor [2]; [6]): 0.14 ± 0.01
Kd (M4 muscarinic receptor [2]; [11]): 2.51 µM
EC50 (M4 muscarinic receptor [2]; [12]): 2.4 µM
RAi (M4 muscarinic receptor [2]; [7]): 0.0030 ± 0.0003
Δlog(τ/KA) (M4 muscarinic receptor [2]; [8]): 2.26 ± 0.16
Ki (M5 muscarinic receptor; [13]): 0.977 µM
RAi (M1 muscarinic receptor [3]): 0.0024 ± 0.0004
Δlog(τ/KA) (M1 muscarinic receptor [3]): 2.62 ± 0.18
E′MAX (M1 muscarinic receptor [3]; [14]): 1.8 ± 0.2 fold over basal
τ (M1 muscarinic receptor [3]; [15]): 0.02 ± 0.01
Kd (M1 muscarinic receptor [3]; [16]): 2.51 µM
EC50 (M1 muscarinic receptor [3]; [17]): 2.51 µM
Ki (M1 muscarinic receptor [4]; [18]): 1.51 µM
RAi (M3 muscarinic receptor): 0.0042 ± 0.0005
Δlog(τ/KA) (M3 muscarinic receptor): 2.38 ± 0.66
E′MAX (M3 muscarinic receptor; [19]): 1.6 ± 0.1 fold over basal
τ (M3 muscarinic receptor; [20]): 0.02 ± 0.01
Kd (M3 muscarinic receptor; [21]): 2.51 µM
EC50 (M3 muscarinic receptor; [22]): 2.51 µM

Cc1ccc(CN2CC=CCC2)s1.Cl [Compound 6B, 1-[(5-methylthiophen-2-yl)methyl]-1,2,3,6-tetrahydropyridin-1-ium chloride]
Ki (M4 muscarinic receptor [1]; [10]): 28.8 µM
binding that occurred with high affinity (M4 muscarinic receptor [1]; fraction of binding to M4): ~10%
Ki (M4 muscarinic receptor [1]; high-affinity fraction of binding to M4, read-out: high affinity binding): ~0.03 µM
Ki (M4 muscarinic receptor [1]; high-affinity fraction, M4, read-out: pKI of high affinity binding (converted)): 0.02 µM
Emax (M4 muscarinic receptor [2]; M4 (↓cAMP), preferential response, Table 7, read-out: E′MAX): 25 ± 2%
τ (M4 muscarinic receptor [2]; [6]): 0.39 ± 0.04
Kd (M4 muscarinic receptor [2]; [11]): 12.6 µM
EC50 (M4 muscarinic receptor [2]; [12]): 9.77 µM
RAi (M4 muscarinic receptor [2]; [7]): 0.0020 ± 0.0002
Δlog(τ/KA) (M4 muscarinic receptor [2]; [8]): 2.51 ± 0.20
Ki (M5 muscarinic receptor; [13]): 24 µM
E′MAX (M1 muscarinic receptor [3]; [14]): 2.0 ± 0.2 fold over basal
τ (M1 muscarinic receptor [3]; [15]): 0.03 ± 0.01
Kd (M1 muscarinic receptor [3]; [16]): 15.8 µM
EC50 (M1 muscarinic receptor [3]; [17]): 15.8 µM
RAi (M1 muscarinic receptor [3]; M1 (↑IPX), preferential response, relative to carbachol, Tables 2, 3, 7): 0.0005 ± 0.0001
Δlog(τ/KA) (M1 muscarinic receptor [3]; M1 (↑IPX), preferential response, to carbachol, Tables 2, 3, 7): 3.28 ± 0.38
Ki (M1 muscarinic receptor [4]; [18]): 25.1 µM
E′MAX (M3 muscarinic receptor; [19]): 2.0 ± 0.2 fold over basal
τ (M3 muscarinic receptor; [20]): 0.04 ± 0.01
Kd (M3 muscarinic receptor; [21]): 15.8 µM
EC50 (M3 muscarinic receptor; [22]): 31.6 µM
RAi (M3 muscarinic receptor; M3 (↑IPX), preferential response, relative to carbachol, Tables 2, 3, 7): 0.0006 ± 0.0001
Δlog(τ/KA) (M3 muscarinic receptor; M3 (↑IPX), preferential response, to carbachol, Tables 2, 3, 7): 3.24 ± 0.34

C[N+](C)(C)CCOC(N)=O [carbachol, reference compound]
E′MAX (M4 muscarinic receptor [2]; [5]): 55 ± 2 % inhibition
τ (M4 muscarinic receptor [2]; [6]): 1.41 ± 0.08
Δlog(τ/KA) (M4 muscarinic receptor [2]; [8]): 0
E′MAX (M4 muscarinic receptor [2]; M4Gi (↓cAMP), Table 8): 55 ± 2 % inhibition
τ (M4 muscarinic receptor [2]; M4Gi (↓cAMP), Table 8): 1.4 ± 0.1
Δlog(τ/KA) (M4 muscarinic receptor [2]; [9]): 0

C[N+]1(Cc2ccc(Cl)s2)CC=CCC1.[I-] (centres unmarked) [Compound 7D, 1-[(5-chlorothiophen-2-yl)methyl]-1-methyl-1,2,3,6-tetrahydropyridin-1-ium iodide]
Ki (M4 muscarinic receptor [1]; Inhibition constants (Ki) as negative logarithms, M4, competition with 1 nM [3H]NMS): 3.09 µM
EC50 (M4 muscarinic receptor [2]): 4.68 µM
Kd (M4 muscarinic receptor [2]): 6.31 µM
Emax (M4 muscarinic receptor [2]): 28 ± 1%
τ (M4 muscarinic receptor [2]; [6]): 0.46 ± 0.05
RAi (M4 muscarinic receptor [2]; [7]): 0.0048 ± 0.0005
Δlog(τ/KA) (M4 muscarinic receptor [2]; [8]): 2.14 ± 0.19
Ki (M5 muscarinic receptor; Inhibition constants (Ki) as negative logarithms, M5, competition with 1 nM [3H]NMS): 1.7 µM
RAi (M1 muscarinic receptor [3]): 0.0165 ± 0.0003
Δlog(τ/KA) (M1 muscarinic receptor [3]): 1.78 ± 0.21
E′MAX (M1 muscarinic receptor [3]; [14]): 7.9 ± 0.8 fold over basal
τ (M1 muscarinic receptor [3]; [15]): 0.26 ± 0.03
Kd (M1 muscarinic receptor [3]; [16]): 3.98 µM
EC50 (M1 muscarinic receptor [3]; [17]): 3.39 µM
Ki (M1 muscarinic receptor [4]; [18]): 1.38 µM
RAi (M3 muscarinic receptor): 0.0050 ± 0.0006
Δlog(τ/KA) (M3 muscarinic receptor): 2.30 ± 0.45
E′MAX (M3 muscarinic receptor; [19]): 1.8 ± 0.1 fold over basal
τ (M3 muscarinic receptor; [20]): 0.03 ± 0.01
Kd (M3 muscarinic receptor; [21]): 3.98 µM
EC50 (M3 muscarinic receptor; [22]): 3.16 µM
